How the values were obtained:
Assay type in all cases: functional
Bacillus subtilis = assay: microbe, parasite or virus in culture; conditions: ATCC 6051, 24 h
Description: Antibacterial activity against Bacillus subtilis ATCC 6051 after 24 hrs by CLSI broth microdilution assay

[1] = test system: Staphylococcus epidermidis; assay: microbe, parasite or virus in culture; conditions: ATCC 14990, 24 h
Description: Antibacterial activity against Staphylococcus epidermidis ATCC 14990 after 24 hrs by CLSI broth microdilution assay

Escherichia coli = assay: microbe, parasite or virus in culture; conditions: ATCC 25922, 24 h
Description: Antibacterial activity against Escherichia coli ATCC 25922 after 24 hrs by CLSI broth microdilution assay

Klebsiella aerogenes = assay: microbe, parasite or virus in culture; conditions: ATCC 13048, 24 h
Description: Antibacterial activity against Enterobacter aerogenes ATCC 13048 after 24 hrs by CLSI broth microdilution assay

Candida albicans = assay: microbe, parasite or virus in culture; conditions: ATCC 90028, 24 h
Description: Antifungal activity against Candida albicans ATCC 90028 after 24 hrs by CLSI broth microdilution assay

Saccharomyces cerevisiae = assay: microbe, parasite or virus in culture; conditions: ATCC 9763, 24 h
Description: Antifungal activity against Saccharomyces cerevisiae ATCC 9763 after 24 hrs by CLSI broth microdilution assay

[2] = Selectivity index, ratio of MIC for Escherichia coli ATCC 25922 to MIC for Bacillus subtilis ATCC 6051
[3] = Selectivity index, ratio of MIC for Enterobacter aerogenes ATCC 13048 to MIC for Bacillus subtilis ATCC 6051
[4] = Selectivity index, ratio of MIC for Candida albicans ATCC 90028 to MIC for Bacillus subtilis ATCC 6051
[5] = Selectivity index, ratio of MIC for Saccharomyces cerevisiae ATCC 9763 to MIC for Bacillus subtilis ATCC 6051
[6] = Selectivity index, ratio of MIC for Escherichia coli ATCC 25922 to MIC for Staphylococcus epidermidis ATCC 14990
[7] = Selectivity index, ratio of MIC for Enterobacter aerogenes ATCC 13048 to MIC for Staphylococcus epidermidis ATCC 14990
[8] = Selectivity index, ratio of MIC for Candida albicans ATCC 90028 to MIC for Staphylococcus epidermidis ATCC 14990
[9] = Selectivity index, ratio of MIC for Saccharomyces cerevisiae ATCC 9763 to MIC for Staphylococcus epidermidis ATCC 14990

| Compound | MIC (Bacillus subtilis) | MIC [1] | MIC (Escherichia coli) | MIC (Klebsiella aerogenes) | MIC (Candida albicans) | MIC (Saccharomyces cerevisiae) | Selectivity Index [2] | Selectivity Index [3] | Selectivity Index [4] | Selectivity Index [5] | Selectivity Index [6] | Selectivity Index [7] | Selectivity Index [8] | Selectivity Index [9] |
| --- | --- | --- | --- | --- | --- | --- | --- | --- | --- | --- | --- | --- | --- | --- |
| Cc1ccc(-[n+]2nn(Cc3ccccc3)cc2-c2ccccc2)cc1 | > 250 µM | > 250 µM | > 250 µM | > 250 µM | > 250 µM | > 250 µM |  |  |  |  |  |  |  |  |
| Cc1ccc(-n2cc(-c3ccccc3)[n+](Cc3ccc(C(C)(C)C)cc3)n2)cc1 | 8 µM | 8 µM | > 250 µM | > 250 µM | > 250 µM | > 250 µM |  |  |  |  |  |  |  |  |
| CCCCc1cn(Cc2ccccc2)n[n+]1Cc1ccccc1 | > 250 µM | > 250 µM | > 250 µM | > 250 µM | > 250 µM | > 250 µM |  |  |  |  |  |  |  |  |
| Cc1ccc(-[n+]2nn(Cc3ccc(C(C)(C)C)cc3)cc2-c2ccccc2)cc1 | 16 µM | 16 µM | > 250 µM | > 250 µM | > 250 µM | > 250 µM |  |  |  |  |  |  |  |  |
| CCCCc1cn(-c2ccc(C)cc2)n[n+]1Cc1ccccc1 | > 250 µM | > 250 µM | > 250 µM | > 250 µM | > 250 µM | > 250 µM |  |  |  |  |  |  |  |  |
| CCCCc1cn(Cc2ccccc2)n[n+]1Cc1ccc(C(C)(C)C)cc1 | 8 µM | 8 µM | > 250 µM | > 250 µM | 250 µM | 250 µM |  |  |  |  |  |  |  |  |
| Cc1ccc(-n2cc(-c3ccccc3)[n+](Cc3ccccc3)n2)cc1 | > 250 µM | > 250 µM | > 250 µM | > 250 µM | > 250 µM | > 250 µM |  |  |  |  |  |  |  |  |
| CCCCCCCCc1cn(-c2ccc(C)cc2)n[n+]1Cc1ccccc1 | 4 µM | 8 µM | > 250 µM | > 250 µM | 250 µM | 250 µM | > 50 | > 50 | > 50 | > 50 | > 50 | > 50 | > 50 | > 50 |
| CCCCCCCCc1cn(Cc2ccccc2)n[n+]1Cc1ccccc1 | 8 µM | 8 µM | > 250 µM | > 250 µM | 250 µM | 250 µM |  |  |  |  |  |  |  |  |

Further lines, with some results ahead:

| MIC (Bacillus subtilis) | MIC [1] | MIC (Escherichia coli) | MIC (Klebsiella aerogenes) | MIC (Candida albicans) | MIC (Saccharomyces cerevisiae) | Compound | Selectivity Index [2] | Selectivity Index [3] | Selectivity Index [4] | Selectivity Index [5] | Selectivity Index [6] | Selectivity Index [7] | Selectivity Index [8] | Selectivity Index [9] |
| --- | --- | --- | --- | --- | --- | --- | --- | --- | --- | --- | --- | --- | --- | --- |
| 2 µM | 2 µM | 250 µM | 250 µM | 4 µM | 4 µM | CCCCCCCCCCCCc1cn(-c2ccc(C)cc2)n[n+]1Cc1ccc(C(C)(C)C)cc1 |  |  |  |  |  |  |  |  |
| 2 µM | 2 µM | 16 µM | 16 µM | 4 µM | 8 µM | CCCCCCCCc1cn(-c2ccc(C)cc2)n[n+]1Cc1ccc(C(C)(C)C)cc1 |  |  |  |  |  |  |  |  |
| 2 µM | 4 µM | 16 µM | 16 µM | 16 µM | 16 µM | CCCCCCCCCCCCc1cn(Cc2ccccc2)n[n+]1Cc1ccccc1 |  |  |  |  |  |  |  |  |
| 2 µM | 2 µM | 250 µM | 250 µM | 8 µM | 16 µM | CCCCCCCCCCCCc1cn(Cc2ccccc2)n[n+]1Cc1ccc(C(C)(C)C)cc1 |  |  |  |  |  |  |  |  |
| 4 µM | 4 µM | 250 µM | > 250 µM | 250 µM | 250 µM | CCCCc1cn(-c2ccc(C)cc2)n[n+]1Cc1ccc(C(C)(C)C)cc1 | > 50 | > 50 | > 50 | > 50 | > 50 | > 50 | > 50 | > 50 |
| 1 µM | 2 µM | 8 µM | 8 µM | 8 µM | 8 µM | CCCCCCCCCCCCc1cn(-c2ccc(C)cc2)n[n+]1Cc1ccccc1 |  |  |  |  |  |  |  |  |
| 1 µM | 2 µM | 31 µM | 31 µM | 8 µM | 16 µM | CCCCCCCCc1cn(Cc2ccccc2)n[n+]1Cc1ccc(C(C)(C)C)cc1 |  |  |  |  |  |  |  |  |

— ChEMBL document CHEMBL4261591, “Antimicrobial 1,3,4-trisubstituted-1,2,3-triazolium salts” (2018)
